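Values below derive from 48-hour exposures of cells grown in 96-well plates, with endpoints linearly interpolated between the two concentrations bracketing the appropriate inhibition level. TGI marks complete inhibition of growth.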
Legend:
Assay in all cases: NCI tumour cell line growth inhibition, 48 h
U251 CNS = test system: U251 CNS
HT29 colon = test system: HT29 colon
NCI-H460 lung = test system: NCI-H460 lung
HCT-116 colon = test system: HCT-116 colon
RPMI-8226 leukemia = test system: RPMI-8226 leukemia
HS 578T breast = test system: HS 578T breast
COLO 205 colon = test system: COLO 205 colon
SNB-19 CNS = test system: SNB-19 CNS
MDA-N = test system: MDA-N
OVCAR-4 ovarian = test system: OVCAR-4 ovarian
PC-3 prostate = test system: PC-3 prostate
SK-MEL-2 melanoma = test system: SK-MEL-2 melanoma
DU-145 prostate = test system: DU-145 prostate
SNB-75 CNS = test system: SNB-75 CNS
NCI-H522 lung = test system: NCI-H522 lung
MCF7 breast = test system: MCF7 breast
SF-268 CNS = test system: SF-268 CNS
SF-539 CNS = test system: SF-539 CNS
CAKI-1 renal = test system: CAKI-1 renal
OVCAR-8 ovarian = test system: OVCAR-8 ovarian
K-562 leukemia = test system: K-562 leukemia
NCI/ADR-RES ovarian = test system: NCI/ADR-RES ovarian
MALME-3M melanoma = test system: MALME-3M melanoma
KM12 colon = test system: KM12 colon
LOX IMVI melanoma = test system: LOX IMVI melanoma
SK-MEL-28 melanoma = test system: SK-MEL-28 melanoma
BT-549 breast = test system: BT-549 breast
A498 renal = test system: A498 renal
ACHN renal = test system: ACHN renal
HOP-92 NSCLC = test system: HOP-92 NSCLC
NCI-H226 lung = test system: NCI-H226 lung
HCT-15 colon = test system: HCT-15 colon
NCI-H23 lung = test system: NCI-H23 lung
T-47D breast = test system: T-47D breast
UO-31 renal = test system: UO-31 renal
SK-OV-3 ovarian = test system: SK-OV-3 ovarian
MDA-MB-231 breast = test system: MDA-MB-231 breast
SN12C renal = test system: SN12C renal
TK-10 renal = test system: TK-10 renal
786-0 renal = test system: 786-0 renal
MDA-MB-435 = test system: MDA-MB-435
SK-MEL-5 melanoma = test system: SK-MEL-5 melanoma
SW-620 colon = test system: SW-620 colon
SF-295 CNS = test system: SF-295 CNS
HCC-2998 colon = test system: HCC-2998 colon
A549 NSCLC = test system: A549 NSCLC
UACC-62 melanoma = test system: UACC-62 melanoma
UACC-257 melanoma = test system: UACC-257 melanoma
EKVX NSCLC = test system: EKVX NSCLC
HOP-62 NSCLC = test system: HOP-62 NSCLC
M14 melanoma = test system: M14 melanoma
OVCAR-3 ovarian = test system: OVCAR-3 ovarian
HL-60(TB) leukemia = test system: HL-60(TB) leukemia
CCRF-CEM leukemia = test system: CCRF-CEM leukemia
RXF 393 renal = test system: RXF 393 renal
IGROV1 ovarian = test system: IGROV1 ovarian
OVCAR-5 ovarian = test system: OVCAR-5 ovarian
MOLT-4 leukemia = test system: MOLT-4 leukemia
SR leukemia = test system: SR leukemia

Measured: TGI

Cn1c2c(c3ccccc31)CC(=S)N1CCCC(CC2O)C1 (stereo unspecified)
> 100 µM: U251 CNS | HT29 colon | NCI-H460 lung | HCT-116 colon | RPMI-8226 leukemia | HS 578T breast | COLO 205 colon | SNB-19 CNS | MDA-N | OVCAR-4 ovarian | PC-3 prostate | SK-MEL-2 melanoma | DU-145 prostate | SNB-75 CNS | NCI-H522 lung | MCF7 breast | SF-268 CNS | SF-539 CNS | CAKI-1 renal | OVCAR-8 ovarian | K-562 leukemia | NCI/ADR-RES ovarian | MALME-3M melanoma | KM12 colon | LOX IMVI melanoma | SK-MEL-28 melanoma | BT-549 breast | A498 renal | ACHN renal | HOP-92 NSCLC | NCI-H226 lung | HCT-15 colon | NCI-H23 lung | T-47D breast | UO-31 renal | SK-OV-3 ovarian | MDA-MB-231 breast | SN12C renal | TK-10 renal | 786-0 renal | MDA-MB-435 | SK-MEL-5 melanoma | SW-620 colon | SF-295 CNS | HCC-2998 colon | A549 NSCLC | UACC-62 melanoma | UACC-257 melanoma

Cn1c(=S)c2[nH]c(SCCN3CCCC3)nc2n(C)c1=O
> 100 µM: U251 CNS | HT29 colon | NCI-H460 lung | EKVX NSCLC | HCT-116 colon | RPMI-8226 leukemia | HS 578T breast | COLO 205 colon | SNB-19 CNS | MDA-N | OVCAR-4 ovarian | HOP-62 NSCLC | PC-3 prostate | SK-MEL-2 melanoma | DU-145 prostate | M14 melanoma | SNB-75 CNS | NCI-H522 lung | MCF7 breast | SF-268 CNS | SF-539 CNS | OVCAR-3 ovarian | CAKI-1 renal | HL-60(TB) leukemia | CCRF-CEM leukemia | OVCAR-8 ovarian | K-562 leukemia | NCI/ADR-RES ovarian | MALME-3M melanoma | KM12 colon | LOX IMVI melanoma | SK-MEL-28 melanoma | BT-549 breast | A498 renal | ACHN renal | HOP-92 NSCLC | NCI-H226 lung | RXF 393 renal | IGROV1 ovarian | HCT-15 colon | NCI-H23 lung | T-47D breast | UO-31 renal | OVCAR-5 ovarian | SK-OV-3 ovarian | MDA-MB-231 breast | SN12C renal | TK-10 renal | 786-0 renal | MDA-MB-435 | SK-MEL-5 melanoma | MOLT-4 leukemia | SW-620 colon | SF-295 CNS | A549 NSCLC | UACC-62 melanoma | UACC-257 melanoma | SR leukemia

Reference: PubChem BioAssay (NCI)
